Measured values taken from PubChem BioAssay AID1249 (Columbia University Molecular Screening Center, 2008).
Calls of active or inactive are those of the source. The rule behind the calls is not given here.

Assay: modifiers of cytoskeleton assembly, confirmation, imaging, high-content imaging, retest and dose response (AID 1249);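 note: compound exposure lasted 24 h before fixation; plate controls were untreated cells for no effect and reference compound treated cells for full effect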
Details: cell-based imaging, cytoskeleton assembly phenotype, high content; at 2 µM; stronger effect = higher value

SMILES	inhibition
COc1cccc(C(C#N)N2CCCCC2)c1O (configuration not stated)	1.4% (inactive)
Nc1nnnn1/N=C/C(Br)=C/c1ccccc1	1.2% (inactive)
CC(C)(CO)NC(=O)CCCOc1ccc(Cl)cc1Cl	-0.1% (inactive)
COC(=O)c1sccc1NC(=O)CCC1CCCC1	-0.4% (inactive)
C/C=C/COC(=O)c1[nH]c2c(c1C)C(=O)CC(c1ccco1)C2 (configuration not stated)	-1.7% (inactive)
CCOC(=O)c1ccc(NC(=O)CCNc2c(N3CCCC3)c(=O)c2=O)cc1	1.6% (inactive)
Cc1ccc(NC(=O)c2oc3c(c2C)C(=O)CC(C)(C)C3)cc1	-7.9% (inactive)
CCN(CC)c1ccc(C2=NNC(=O)CC2C)cc1[N+](=O)[O-] (configuration not stated)	-7.3% (inactive)
c1ccc(-n2ncc3c(NCc4ccccn4)ncnc32)cc1	24.5% (inactive)
O=C(/C(=C/c1ccc(Cl)cc1)c1nc2ccccc2[nH]1)c1cccs1	-2.9% (inactive)
Cn1nc(C(=O)NCC2CCCO2)c2ccccc2c1=O (configuration not stated)	0% (inactive)
Cn1cccc1C(=O)OCC(=O)Nc1cc(C(C)(C)C)nn1-c1ccccc1	-17.7% (inactive)
Cc1cc(C(=O)NN=C2C3CC4CC(C3)CC2C4)c2ccccc2n1	-3.8% (inactive)
O=C(O)c1cc2nc3c(c(C(F)(F)F)n2n1)CCc1ccccc1-3	3.7% (inactive)
CCNc1nc(OC)nc(Oc2ccc(C(=O)OC)cc2)n1	-22.8% (inactive)
COc1ccccc1C(=O)Nc1ccc2c(c1)nc(CN1CCN(C(C)=O)CC1)n2C	5.7% (inactive)
CCOC(=O)c1cnc(-n2nc(C)cc2C)nc1NCc1ccccc1	-4.4% (inactive)
COc1ccc(N=c2oc3ccc(OC)cc3cc2-c2nc3ccccc3[nH]2)cc1	4.3% (inactive)
COc1ccc(OC)c(N(CC(=O)Nc2ccccc2)S(C)(=O)=O)c1	16.3% (inactive)
O=C1CC(N2CCN(Cc3ccc4c(c3)OCO4)CC2)C(=O)N1Cc1ccc(N2CCCC2=O)cc1 (configuration not stated)	-1.8% (inactive)
Cc1cccc(C(=O)Oc2ccccc2C2C[C@]3(C)CC(=O)NC3N2C(=O)c2cccc(C)c2)c1 (some centres not stated)	-5.8% (inactive)
Cc1ccc(S(=O)(=O)Cn2nnnc2C(C(C)C)N2CCN(c3nc4ccccc4s3)CC2)cc1 (configuration not stated)	4.2% (inactive)
O=C(NCc1cccs1)c1nc2c(nnn2Cc2ccccc2Cl)c(=O)[nH]1	-3.6% (inactive)
O=C(Nc1ccccc1)c1nnsc1S(=O)(=O)c1ccc(Cl)cc1	5.3% (inactive)

SMILES	inhibition
COc1cc(C(=O)N2CCN(c3cc(Cl)ccc3Cl)CC2)cc(OC)c1OC	-2.9% (inactive)
CC(=O)c1ccc(Oc2cc(C)nc(-n3nc(C)cc3C)n2)cc1	11% (inactive)
CCOC(=O)c1[nH]c(C)c(C(=O)c2ccc(C)cc2)c1C	10.5% (inactive)
Cn1nc(CC(=O)NC2CCCCCC2)c2ccccc2c1=O	-17.6% (inactive)
Cc1cc(S(=O)(=O)NCCN2CCOCC2)c(C)s1	4.3% (inactive)
Cc1ccc2[nH]c3c(c2c1)CCC3=O	-8.6% (inactive)
O=C(c1ccc2c(c1)ncn2C1CCCCC1)N1CCC2(CC1)OCCO2	3% (inactive)
CCn1c(SCC(=O)NC(C)c2ccccc2)nc2ccccc21 (configuration not stated)	0.7% (inactive)
CCOc1ccccc1/C=N/Nc1ccccc1[N+](=O)[O-]	-0.7% (inactive)
S=c1[nH]nc(COc2ccc3c(c2)OCO3)n1-c1ccccc1	6.4% (inactive)
COc1ccc(NC(=O)C(NC(=O)c2ccccc2)C(C)C)cc1 (configuration not stated)	4.5% (inactive)
COc1cc(/C=C(/C#N)C(=O)NCCc2c[nH]c3ccccc23)ccc1OCc1ccccc1F	2.3% (inactive)
O=C(Nc1nccs1)c1cccc(N2C(=O)c3cccc4c([N+](=O)[O-])ccc(c34)C2=O)c1	-8.2% (inactive)
O=C(NC(Nc1nc2ccc([N+](=O)[O-])cc2s1)(C(F)(F)F)C(F)(F)F)c1ccccc1	-15.3% (inactive)
CN(C)c1nc(N(C)C)nc(N(C#N)CCOc2ccccc2)n1	-6.3% (inactive)
O=C(CN1CCSCC1)N1CCc2[nH]c3ccc(Br)cc3c2C1	5.8% (inactive)
COc1ccc2[nH]c(=O)c(CN(C(=O)c3ccncc3)C(C)C)cc2c1	-5.6% (inactive)
CCOc1ccc(C(=O)C(c2ccccc2)N2CCOCC2)cc1 (configuration not stated)	4.3% (inactive)
Cc1nccn1-c1ccc(C(F)(F)F)cc1NC=O	-12.8% (inactive)
O=C(Oc1csc(=S)n1C(=O)c1ccccc1)c1ccccc1	-3% (inactive)
CCCCN(C(=O)NC(=O)Nc1cccc(C)c1C)S(C)(=O)=O	1.6% (inactive)
COc1cc(C(=O)N(Cc2ccco2)Cc2cc3ccccc3[nH]c2=O)cc(OC)c1OC	-1% (inactive)
CCOc1cc(/C=N\NC(=O)Cc2ccccc2)ccc1OCC(=O)Nc1ccc(C)c(C)c1	-0.8% (inactive)
CCOC(=O)c1cnn(-c2nc(CC)nc3sc4c(c23)CCC4)c1N	-4.7% (inactive)

SMILES	inhibition
Cc1cccnc1N(C(=O)Nc1ccccc1)C1=NCC(C)(C)S1	-10.2% (inactive)
O=[N+]([O-])c1ccc(/C=N/n2c(COc3ccccc3)n[nH]c2=S)cc1	-4.5% (inactive)
N/C(Cc1cccs1)=N\OC(=O)COc1ccc(Br)cc1Cl	-3.7% (inactive)
Nc1ccc2nc(-c3ccc(N)c(Cl)c3)[nH]c2c1	11.4% (inactive)
CCOc1ccccc1C(=O)NCCC(=O)O	10.6% (inactive)
Cc1cc(C(=O)NN)c2cc(Br)ccc2n1	-2% (inactive)
CCN1C(=O)c2cccc3c(S(=O)(=O)NCc4ccccn4)ccc1c23	-20.8% (inactive)
COc1cc2c(cc1OC)CN(C(=O)C(C)(C)C)CC2	-1.3% (inactive)
Cc1ccc(C(=O)CSc2nsc(C)c2C#N)cc1	-11.1% (inactive)
Cc1cccc(OCCN2CSC(=S)N(C)C2)c1	2.2% (inactive)
Cc1ccc2nc(SCC(=O)Nc3cc(C(F)(F)F)ccc3N3CCOCC3)[nH]c2c1	-6.4% (inactive)
O=C(N/N=C/c1ccc[nH]1)c1sc2ccccc2c1Cl	-8.7% (inactive)
Cc1nc(-c2cccnc2)sc1C(=O)Nc1cccc(C(F)(F)F)c1	2.2% (inactive)
COc1ccc(N2CCN(C(=O)CSc3nnc4c(C)cc5cc(C)ccc5n34)CC2)cc1	3.6% (inactive)
CCOc1cc(/C=C2/C(=O)N(c3ccccc3)N=C2C)ccc1OC(=O)c1ccco1	4.7% (inactive)
O=C(c1cc(-c2ccncc2)nc2ccc(Br)cc12)N1CCN(c2ccccn2)CC1	-1% (inactive)
Cc1nc2ccccc2n1CCCOc1ccccc1	1% (inactive)
C[n+]1ccc(/C=C/c2ccc(Br)cc2)cc1	7.4% (inactive)
COc1ccc(C(=O)C(CN2CCOCC2)c2ccccc2)cc1 (configuration not stated)	1.1% (inactive)
OCCN=C(c1ccccc1)C12CN3CN(CN(C3)C1)C2	-2.8% (inactive)
COCCCNC(=O)c1cn(C)c(=O)c2cc(OC)c(OC)cc12	-7.3% (inactive)
CCOc1ccc2ccccc2c1/C=N/n1cncn1	1.1% (inactive)
Cc1cccc(NC(=O)CN2NS(=O)(=O)c3ccccc3C2=O)c1	-4.6% (inactive)
O=c1c2ccccc2nnn1CSc1ncnc2ccccc12	-4% (inactive)
